Reference: PubChem BioAssay AID248 (DTP/NCI, 2004)
Several values for one entry are separate records, joined by “and”; a condition that tells them apart may be missing. Identical values can stand only once. Inconclusive results and toxic doses are left out. Rule as the data show it: active = T/C of 150% or more; inactive = T/C below 125%. Square brackets hold non-standard residues; d marks the D form. Peptide text beside a SMILES is read from it. * marks the point of attachment. ξ: configuration not given here. Cbz = O=C(OCc1ccccc1)*; ξNle = CCCCC(N)C(=O)O

Test system: L1210 leukemia ip in BDF1 mice, survival T/C
Experiment: NCI In Vivo Anticancer Drug Screen. Data for tumor model L1210 Leukemia (intraperitoneal) in B6D2F1 (BDF1) mice
Settings: endpoint: mean survival time, higher = longer survival
In short: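 In this screen, tumor-bearing mice given compound are compared to those given vehicle, and their survival values are reported as a treated-to-control quotient.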

[1] = dose: 100.0 mg/kg/injection, schedule: Q04DX002 (ip), vehicle: Klucel (hydroxypropylcellulose) (HPC)
[2] = dose: 100.0 mg/kg/injection, schedule: Q04DX003 (ip), vehicle: saline with Tween-80
[3] = dose: 200.0 mg/kg/injection, schedule: Q04DX003 (ip), vehicle: saline with Tween-80
[4] = dose: 400.0 mg/kg/injection, schedule: Q04DX003 (ip), vehicle: saline with Tween-80
[5] = dose: 100.0 mg/kg/injection, schedule: Q04DX002 (ip), vehicle: saline with Tween-80
[6] = dose: 200.0 mg/kg/injection, schedule: Q04DX002 (ip), vehicle: saline with Tween-80
[7] = dose: 400.0 mg/kg/injection, schedule: Q04DX002 (ip), vehicle: saline with Tween-80
[8] = dose: 100.0 mg/kg/injection, schedule: Q01DX009 (ip), vehicle: saline with Tween-80
[9] = dose: 100.0 mg/kg/injection, schedule: Q04DX003 (ip), vehicle: Klucel (hydroxypropylcellulose) (HPC)
[10] = dose: 200.0 mg/kg/injection, schedule: Q01DX009 (ip), vehicle: saline with Tween-80
[11] = dose: 200.0 mg/kg/injection, schedule: Q04DX003 (ip), vehicle: Klucel (hydroxypropylcellulose) (HPC)
[12] = dose: 400.0 mg/kg/injection, schedule: Q01DX009 (ip), vehicle: saline with Tween-80
[13] = dose: 400.0 mg/kg/injection, schedule: Q04DX003 (ip), vehicle: Klucel (hydroxypropylcellulose) (HPC)
[14] = dose: 100.0 mg/kg/injection, schedule: Q01DX009 (ip), vehicle: Klucel (hydroxypropylcellulose) (HPC)
[15] = dose: 200.0 mg/kg/injection, schedule: Q01DX009 (ip), vehicle: Klucel (hydroxypropylcellulose) (HPC)
[16] = dose: 400.0 mg/kg/injection, schedule: Q01DX009 (ip), vehicle: Klucel (hydroxypropylcellulose) (HPC)
[17] = dose: 100.0 mg/kg/injection, schedule: Q01DX001 (ip), vehicle: saline with Tween-80
[18] = dose: 200.0 mg/kg/injection, schedule: Q01DX001 (ip), vehicle: saline with Tween-80
[19] = dose: 400.0 mg/kg/injection, schedule: Q01DX001 (ip), vehicle: saline with Tween-80

Measured: T/C

Clc1ccc(C[P+](c2ccccc2)(c2ccccc2)c2ccccc2)c(Cl)c1
inactive: dose: 4.5 mg/kg/injection, schedule: Q01DX009 (ip), vehicle: saline 109 % of control | dose: 6.25 mg/kg/injection, schedule: Q01DX009 (ip), vehicle: saline with Tween-80 100 % of control | dose: 9.0 mg/kg/injection, schedule: Q01DX009 (ip), vehicle: saline 106 % of control | dose: 9.38 mg/kg/injection, schedule: Q01DX001 (ip), vehicle: water 100 % of control | dose: 12.5 mg/kg/injection, schedule: Q01DX009 (ip), vehicle: saline with Tween-80 94 % of control

O=C(NOC(=O)c1ccccc1)c1ccccc1
inactive: dose: 25.0 mg/kg/injection, schedule: Q04DX002 (ip), vehicle: Klucel (hydroxypropylcellulose) (HPC) 97 % of control | dose: 50.0 mg/kg/injection, schedule: Q04DX002 (ip), vehicle: Klucel (hydroxypropylcellulose) (HPC) 97 % of control | [1] 97 % of control | [2] 103 % of control | [3] 91 % of control | [4] 101 % of control

Nc1ccc(C(=O)CCCN2CCCCC2)cc1
inactive: dose: 12.5 mg/kg/injection, schedule: Q01DX009 (ip), vehicle: saline 103 % of control | dose: 25.0 mg/kg/injection, schedule: Q01DX009 (ip), vehicle: saline 97 % of control | dose: 50.0 mg/kg/injection, schedule: Q01DX009 (ip), vehicle: saline 100 % of control

Cc1ccc(S(=O)(=O)NC(Cc2ccccc2)C(=O)Nc2cccnc2)cc1 (stereo not drawn)
inactive: dose: 100.0 mg/kg/injection, schedule: Q01DX001 (ip), vehicle: Klucel (hydroxypropylcellulose) (HPC) 91 % of control | dose: 200.0 mg/kg/injection, schedule: Q01DX001 (ip), vehicle: Klucel (hydroxypropylcellulose) (HPC) 100 % of control | dose: 400.0 mg/kg/injection, schedule: Q01DX001 (ip), vehicle: Klucel (hydroxypropylcellulose) (HPC) 88 % of control

CC(=O)[O][Sb]([O]C(C)=O)([c]1ccccc1)([c]1ccccc1)[c]1ccccc1
inactive: [5] 96 % of control | [6] 96 % of control | [7] 96 % of control

COc1ccc(OC(=O)Nc2ccc(SC)cc2)cc1
inactive: [8] 104 % of control | [9] 96 % of control | [10] 90 % of control | [11] 96 % of control | [12] 98 % of control | [13] 102 % of control

Cc1nccnc1SC1CCCCC1
inactive: [9] 96 % of control | [11] 96 % of control | [13] 93 % of control

COc1cc2c(cc1OC)C1CC3(CC4c5cc(OC)c(OC)cc5CCN4CC3CO)C(CO)CN1CC2 (stereo not drawn)
inactive: dose: 4.0 mg/kg/injection, schedule: Q04DX003 (ip), vehicle: water 101 % of control | dose: 8.0 mg/kg/injection, schedule: Q04DX003 (ip), vehicle: water 101 % of control | dose: 16.0 mg/kg/injection, schedule: Q04DX003 (ip), vehicle: water 110 % of control | dose: 32.0 mg/kg/injection, schedule: Q04DX003 (ip), vehicle: water 103 % of control | dose: 64.0 mg/kg/injection, schedule: Q04DX003 (ip), vehicle: water 101 % of control

[O-]c1c[n+](-c2ccc3ccccc3c2)no1
inactive: dose: 100.0 mg/kg/injection, schedule: Q04DX003 (ip), vehicle: carboxymethylcellulose (CMC) 114 % of control | dose: 200.0 mg/kg/injection, schedule: Q04DX003 (ip), vehicle: carboxymethylcellulose (CMC) 110 % of control | dose: 400.0 mg/kg/injection, schedule: Q04DX003 (ip), vehicle: carboxymethylcellulose (CMC) 104 % of control

CC(C)(C)NC(=O)NCC1CCCC1NC(=O)NC(C)(C)C (stereo not drawn)
inactive: [1] 92 % of control | dose: 200.0 mg/kg/injection, schedule: Q04DX002 (ip), vehicle: Klucel (hydroxypropylcellulose) (HPC) 99 % of control | dose: 400.0 mg/kg/injection, schedule: Q04DX002 (ip), vehicle: Klucel (hydroxypropylcellulose) (HPC) 92 % of control

C=CCC1(CC)C(=O)NC(=O)NC1=O
inactive: dose: 50.0 mg/kg/injection, schedule: Q01DX009 (ip), vehicle: saline sonified 102 % of control | dose: 100.0 mg/kg/injection, schedule: Q01DX009 (ip), vehicle: saline sonified 110 % of control | [9] 94 % of control | dose: 200.0 mg/kg/injection, schedule: Q01DX009 (ip), vehicle: saline sonified 108 % of control | [11] 94 % of control

COC(=O)C1C2CCc3cc(OC)ccc3C2CC(=O)C1(C)C(=O)OC (stereo not drawn)
inactive: dose: 100.0 mg/kg/injection, schedule: Q01DX009 (sc), vehicle: steriod suspending solution 98 % of control | dose: 200.0 mg/kg/injection, schedule: Q01DX009 (sc), vehicle: steriod suspending solution 98 % of control | dose: 400.0 mg/kg/injection, schedule: Q01DX009 (sc), vehicle: steriod suspending solution 107 % of control

OC(C1CCCCN1)C12CC3CC(CC(C3)C1)C2 (stereo not drawn)
inactive: dose: 50.0 mg/kg/injection, schedule: Q01DX009 (ip), vehicle: saline with Tween-80 104 % of control | [8] 98 % of control | [2] 105 % of control | [3] 95 % of control

CCCCC(NC(=O)CNC(=O)CNC(=O)OCc1ccccc1)C(=O)O (stereo not drawn) (Cbz-Gly-Gly-[ξNle]-OH)
inactive: [9] 108 % of control | [11] 104 % of control | [13] 96 % of control

O=Nc1ccc(SCC(=O)NNC(=O)CSc2ccc(N=O)cc2[N+](=O)[O-])cc1
inactive: [2] 93 % of control

Cc1cc(NS(=O)(=O)c2ccccc2)c2c(c1NS(=O)(=O)c1ccccc1)CC=CC2
inactive: [14] 103 % of control | [9] 103 % of control | [15] 100 % of control | [11] 95 % of control | [16] 111 % of control | [13] 94 % of control

c1ccc2c(C3=NCCN3)ccc(C3=NCCN3)c2c1
inactive: dose: 15.0 mg/kg/injection, schedule: Q01DX Z (ip), vehicle: saline 100 % of control | dose: 30.0 mg/kg/injection, schedule: Q01DX Z (ip), vehicle: saline 101 % of control

CC1CCC2=CC(=O)CCC2(C)C1C (stereo not drawn)
inactive: [8] 101 % of control | [10] 96 % of control | [12] 91 % of control

Cc1ccc(NC(=O)C(Cl)(Cl)Cl)cc1Cl
inactive: [14] 112 % of control | [15] 106 % of control | [16] 109 % of control

Cc1cccc(NC(=O)OC/C=C/c2ccccc2)c1
inactive: [17] 114 % of control | [8] 102 % of control and 103 % of control | [5] 105 % of control and 108 % of control | [2] 86 % of control | [18] 103 % of control | [10] 95 % of control and 96 % of control | [6] 95 % of control and 105 % of control | [3] 90 % of control | [19] 97 % of control | [12] 90 % of control | [7] 95 % of control and 105 % of control | [4] 86 % of control

CC(=O)OCC1OC(Oc2ccccc2)C(OC(C)=O)C(OC(C)=O)C1OC(C)=O (stereo not drawn)
inactive: [17] 101 % of control | [8] 101 % of control | [18] 96 % of control | [10] 95 % of control | [19] 101 % of control | [12] 96 % of control

COc1ccc(S(=O)(=O)NC(=O)NCC=C(C)C)cc1
inactive: dose: 50.0 mg/kg/injection, schedule: Q01DX009 (ip), vehicle: Klucel (hydroxypropylcellulose) (HPC) 98 % of control | [14] 98 % of control | [9] 93 % of control | [15] 96 % of control | [11] 103 % of control | [13] 94 % of control

NC(Cc1ccccc1)C(=O)NCCCCCCCCCCNC(=O)C(N)Cc1ccccc1 (stereo not drawn)
inactive: dose: 50.0 mg/kg/injection, schedule: Q01DX001 (ip), vehicle: saline 98 % of control | dose: 100.0 mg/kg/injection, schedule: Q01DX001 (ip), vehicle: saline 104 % of control | dose: 200.0 mg/kg/injection, schedule: Q01DX001 (ip), vehicle: saline 103 % of control

COc1cc(Cl)ccc1NC(=O)Oc1cccc2ccccc12
inactive: [14] 89 % of control | [15] 101 % of control | [16] 95 % of control

CCC#CC(=O)OCCCC
inactive: dose: 100.0 mg/kg/injection, schedule: Q04DX002 (ip), vehicle: saline 93 % of control | dose: 200.0 mg/kg/injection, schedule: Q04DX002 (ip), vehicle: saline 104 % of control | dose: 400.0 mg/kg/injection, schedule: Q04DX002 (ip), vehicle: saline 96 % of control
